# What was measured:
# [1] = target: T1, Mineralocorticoid receptor (Homo sapiens, UniProt P08235); assay: Binding affinity to MR
# T1 sequence (P08235 whole entry): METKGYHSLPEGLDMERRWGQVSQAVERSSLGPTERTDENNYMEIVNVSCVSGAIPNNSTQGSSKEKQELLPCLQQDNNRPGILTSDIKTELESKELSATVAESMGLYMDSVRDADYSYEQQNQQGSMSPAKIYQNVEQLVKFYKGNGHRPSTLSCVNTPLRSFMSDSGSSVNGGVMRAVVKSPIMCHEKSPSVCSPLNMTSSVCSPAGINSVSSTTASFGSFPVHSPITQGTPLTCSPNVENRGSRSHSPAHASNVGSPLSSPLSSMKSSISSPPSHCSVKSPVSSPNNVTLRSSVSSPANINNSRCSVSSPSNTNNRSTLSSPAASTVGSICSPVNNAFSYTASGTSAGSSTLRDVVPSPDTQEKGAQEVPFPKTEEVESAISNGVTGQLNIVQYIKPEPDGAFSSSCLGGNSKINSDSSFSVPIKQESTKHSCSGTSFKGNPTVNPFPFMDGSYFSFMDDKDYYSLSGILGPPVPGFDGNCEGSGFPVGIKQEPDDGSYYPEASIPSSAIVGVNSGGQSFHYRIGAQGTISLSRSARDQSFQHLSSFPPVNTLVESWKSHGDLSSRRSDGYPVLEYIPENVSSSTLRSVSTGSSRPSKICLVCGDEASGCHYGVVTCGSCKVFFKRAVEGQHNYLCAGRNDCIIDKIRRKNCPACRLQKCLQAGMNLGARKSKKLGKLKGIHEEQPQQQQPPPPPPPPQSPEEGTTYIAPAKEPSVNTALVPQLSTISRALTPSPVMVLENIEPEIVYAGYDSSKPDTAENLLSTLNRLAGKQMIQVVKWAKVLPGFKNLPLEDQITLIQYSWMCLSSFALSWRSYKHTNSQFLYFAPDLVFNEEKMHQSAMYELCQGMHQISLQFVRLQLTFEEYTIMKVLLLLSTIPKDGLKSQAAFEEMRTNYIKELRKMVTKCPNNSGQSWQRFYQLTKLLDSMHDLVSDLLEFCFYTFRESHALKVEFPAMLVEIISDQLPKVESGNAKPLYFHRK
# [2] = Selectivity ratio of Ki for GR to Ki for PR
# [3] = Metabolic stability in CD-1 […] liver microsomes by HPLC-MS/MS; assay type: ADME, Microsome; settings: CD-1, liver microsomes
# [4] = Apparent half life in Sprague-Dawley rat at 30 mg/kg, po; assay type: ADME, organism-based; set-up: dose 30 mg/kg, route oral; settings: in vivo
# [5] = Selectivity ratio of Ki for GR to Ki for MR
# [6] = target: T2, Glucocorticoid receptor (Homo sapiens, UniProt P04150); assay: Agonist activity at GR expressed in african green monkey CV1 cells transfected with luciferase gene linked to MMTV promoter assessed as induction of luciferase transactivation activity relative to Dexamethasone; assay type: functional, cell-based, CV-1
# T2 sequence (P04150 whole entry): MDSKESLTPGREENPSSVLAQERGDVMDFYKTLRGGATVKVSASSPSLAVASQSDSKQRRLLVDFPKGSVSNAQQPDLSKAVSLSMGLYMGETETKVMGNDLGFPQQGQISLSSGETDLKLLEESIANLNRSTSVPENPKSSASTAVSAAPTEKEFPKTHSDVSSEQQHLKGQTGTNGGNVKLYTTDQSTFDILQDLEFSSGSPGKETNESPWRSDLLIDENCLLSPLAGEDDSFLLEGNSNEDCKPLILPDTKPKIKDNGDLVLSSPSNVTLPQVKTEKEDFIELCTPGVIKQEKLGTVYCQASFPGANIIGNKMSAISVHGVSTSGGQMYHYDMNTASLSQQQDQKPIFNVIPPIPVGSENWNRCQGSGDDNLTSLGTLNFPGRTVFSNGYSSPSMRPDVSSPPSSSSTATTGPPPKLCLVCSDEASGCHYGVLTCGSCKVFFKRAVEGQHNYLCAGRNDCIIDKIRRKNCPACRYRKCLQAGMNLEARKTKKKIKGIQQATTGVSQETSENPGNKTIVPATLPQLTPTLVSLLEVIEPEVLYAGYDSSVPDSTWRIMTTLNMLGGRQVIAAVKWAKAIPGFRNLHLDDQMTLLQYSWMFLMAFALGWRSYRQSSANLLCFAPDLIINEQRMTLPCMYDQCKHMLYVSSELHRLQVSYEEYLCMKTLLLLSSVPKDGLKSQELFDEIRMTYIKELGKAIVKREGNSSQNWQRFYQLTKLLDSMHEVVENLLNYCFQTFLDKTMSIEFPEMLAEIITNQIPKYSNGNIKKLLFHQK
# [7] = target: T3, Progesterone receptor (Homo sapiens, UniProt P06401); assay: Binding affinity to PR
# T3 sequence (P06401 whole entry): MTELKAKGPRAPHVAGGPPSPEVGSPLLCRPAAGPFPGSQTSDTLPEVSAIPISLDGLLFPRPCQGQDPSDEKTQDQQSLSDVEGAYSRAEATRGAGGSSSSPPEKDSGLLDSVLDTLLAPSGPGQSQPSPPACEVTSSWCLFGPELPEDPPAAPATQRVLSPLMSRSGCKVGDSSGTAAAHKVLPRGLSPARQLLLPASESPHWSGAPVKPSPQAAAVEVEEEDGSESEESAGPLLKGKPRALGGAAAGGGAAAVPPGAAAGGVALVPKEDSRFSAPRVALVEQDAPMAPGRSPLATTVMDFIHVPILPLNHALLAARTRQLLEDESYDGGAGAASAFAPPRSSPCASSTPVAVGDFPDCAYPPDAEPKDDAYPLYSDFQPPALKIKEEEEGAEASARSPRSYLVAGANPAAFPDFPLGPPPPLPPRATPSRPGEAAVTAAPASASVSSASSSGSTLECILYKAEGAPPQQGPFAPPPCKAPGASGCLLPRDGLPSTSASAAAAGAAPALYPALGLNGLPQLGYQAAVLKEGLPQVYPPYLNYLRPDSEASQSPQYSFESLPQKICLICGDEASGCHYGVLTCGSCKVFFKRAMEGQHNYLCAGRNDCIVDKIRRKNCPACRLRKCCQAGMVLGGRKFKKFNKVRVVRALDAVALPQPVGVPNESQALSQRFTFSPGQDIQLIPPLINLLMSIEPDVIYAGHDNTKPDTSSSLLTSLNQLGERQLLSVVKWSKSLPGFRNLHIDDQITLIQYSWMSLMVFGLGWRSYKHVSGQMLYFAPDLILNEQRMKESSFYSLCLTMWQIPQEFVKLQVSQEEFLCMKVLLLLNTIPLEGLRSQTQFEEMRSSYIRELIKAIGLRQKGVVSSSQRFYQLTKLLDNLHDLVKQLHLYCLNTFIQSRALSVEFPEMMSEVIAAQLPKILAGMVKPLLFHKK
smiles,measurement,setting,value
C[C@H]1c2c(cc(F)c(-c3cccc4cc[nH]c34)c2F)NC(C)(C)[C@@H]1O (racemic),Ki,[1],1.52 µM
same,Ratio Ki,[2],> 500
same,half-life,[3],0.5 h
same,half-life,[4],3.2 h
same,Ratio Ki,[5],> 500
same,EC50,[6],0.0006 µM
same,Ki,[7],2.1 µM
